Measured values as given in article PMC7993375, “Discovery of novel quinoline-based analogues of combretastatin A-4 as tubulin polymerisation inhibitors with apoptosis inducing activity and potent anticancer effect” (Journal of Enzyme Inhibition and Medicinal Chemistry, 2021).
Read-outs that look alike come from different tables or passages of the source.

Legend:
HL-60 = test: MTT cell viability assay, HL-60 leukaemia cells; format: cell-based; conditions: Homo sapiens
Description: (§1) The four human tumour cell lines MCF-7, HCT-116, HL-60 and HeLa used in this study were obtained from the VACSERA (Giza, Egypt) cell culture unit that were originally acquired from ATCC (Manassas, VA, USA). All the human tumour cell lines were cultured in Dulbecco’s Modified Eagle’s Medium (DMEM) with 10% foetal bovine serum, 2 mM L-glutamine and 100 µg/mL penicillin/streptomycin. Cells were maintained at 37 °C in 5% CO2 in a humidified incubator. All cells were sub-cultured 3 times/week by trypsinisation using TrypLE Express (1X).
(§2) The quinoline compounds were evaluated for antiproliferative effect using the MTT viability assay of four cancer cell lines (MCF-7, HCT-116, HL-60 and HeLa) and normal breast cells MCF-10A to calculate the relative IC50 values for each compound. Cells were seeded in triplicate in 96-well plates at a density of 10 × 10^3 cells/ml in a total volume of 200 µl per well. 0.1% of DMSO was used as a vehicle control. Following, the cells were treated with 2 µl test compound (from stock solutions in ethanol) to furnish the concentration range of study, 1 nM to 50 µM, and re-incubated for a further 72 h. The culture medium was then removed, and the cells washed with 100 µL phosphate buffered saline (PBS) and 50 µL MTT added, to reach a final concentration of 1 mg/mL. Cells were incubated for 2 h in darkness at 37 °C. Solubilisation was begun through the addition of […] DMSO, and the cells maintained at room temperature in darkness for 20 min to ensure thorough colour diffusion before reading the absorbance. Plates were incubated for 72 h at 37 °C + 5% CO2. The MTT (5 mg/mL in PBS) was added and incubated for another 4 h, and the optical density was detected with a microplate reader at 570 nm. Results were expressed as percentage viability relative to vehicle control (100%). Dose response curves were plotted and IC50 values (concentration of drug resulting in 50% reduction in cell survival) were obtained using the commercial software package Prism (GraphPad Software, Inc., La Jolla, CA, USA). All the experiments were repeated in at least three independent experiments.

caspase-9 = test: Caspase-9 activation assay; format: cell-based, human
Description: (§3) The level of the anti-apoptotic marker and apoptotic marker BAX were assessed using Bcl-2 Elisa kit and human Bax ELISA Kit purchased from Zymed laboratories, invitrogen and Cloud-Clone Crop. (Katy, TX, USA), respectively, following the manufacturer’s instructions. Briefly, Treated MCF-7 cell lysate with 250 nM of compound 12c were prepared, and equal amount of cell lysates were loaded and propped with specific antibodies. The samples were measured and analysed at 450 nm in ROBONEK P2000 ELISA reader. In Vitro Caspase-9 Activation Assay was performed using human active caspase-9 Invitrogen EIA kit according to the manufacturer’s instructions. Compound 12c at concentrations of 50 and 250 nM and CA-4 (50 nM) were prepared in dH2O up to a final volume of 50 µL/well followed by addition of 5 µL of active caspase-9. Following, the cells were mixed and 50 µL of the Master Mix was added to each well and allowed to react at 37 °C for 1 h. The fluorescence intensity of the test samples was recorded and analysed in a fluorescence plate reader at 400 nm excitation and 505 nm emissions. All experiments were conducted in triplicates.

MCF-7 cells [1] = test: Annexin V/PI apoptotic assay; format: cell-based, human; conditions: for percentage of Annexin V-staining positive cells: 48 h, untreated 1%; for percentage of early and late apoptotic cells: 72 h, untreated 2%
Description: Apoptotic cell death was detected by flow cytometry using Annexin V and propidium iodide (PI). […] Cells were then harvested and prepared for flow cytometric analysis. Cells were washed in 1X binding buffer (20X binding buffer: 0.1 M HEPES, pH 7.4; 1.4 M NaCl; 25 mM CaCl2 diluted in dH2O) and incubated in the dark for 30 min on ice in Annexin V-containing binding buffer [1:100]. Cells were then washed once in binding buffer and then re-suspended in PI-containing binding buffer [1:1000]. Samples were analysed immediately using the BD accuri flow cytometer and prism software for analysis the data. Four populations are produced during the assay Annexin V and PI negative (Q4, healthy cells), Annexin V positive and PI negative (Q3, early apoptosis), Annexin V and PI positive (Q2, late apoptosis) and Annexin V negative and PI positive (Q1, necrosis).

MCF-7 cells [2] = test: Intracellular ROS production (H2-DCFDA); format: cell-based, human; conditions: 24 h, untreated 1.0%
Description: (§4) Mitochondrial membrane potential (Δψmt) was measured by flow cytometry with DiOC2(3) staining and additional labelling with an annexin V conjugate. After treatment with compound 12c (50 and 250 nM) and CA-4 (50 nM), cells were stained with DiOC2(3) dye for 30 min in the incubator, then harvested and washed with PBS. DiOC2(3)-stained cells were resuspended with 1X annexin binding buffer, followed by addition of annexin V conjugate and incubated at 37 °C for 15 min. The data from the flow cytometry were analysed by Cell Quest software. Production of intracellular reactive oxygen species (ROS) was measured using 2,7–dichlorofluorescin diacetate (H2-DCFDA) dye. MCF-7 cells were seeded and treated either with vehicle (0.1% DMSO) or with compound 12c (50 and 250 nM) or CA-4 (50 nM) for 6, 12 and 24 h. H2O2 was used as a positive control. The amount of ROS generated was estimated after 2 h of selected compound treatment. The cells were collected by centrifugation and washed twice with PBS. Cells were then incubated with DCFDA dye (25 µM) in dark at 37 °C for 1 h. Fluorescence spectra (510 − 600 nm) were monitored using an excitation wavelength of 488 nm[53]^,[54].

[3] = tested on: anti-apoptotic protein Bcl-2; test: Bcl-2 ELISA, expression level in MCF-7 cells; format: cell-based, human; conditions: MCF-7, 250 nM, 48 h
Description: as §3

[4] = tested on: pro-apoptotic protein Bax; test: Bax ELISA, expression level in MCF-7 cells; format: cell-based, human; conditions: MCF-7, 250 nM, 48 h
Description: as §3

MCF-7 cells [5] = test: Mitochondrial membrane potential (DiOC2(3), annexin V, flow cytometry); format: cell-based, human; conditions: 24 h, untreated 1.1%
Description: as §4

MCF-7 cells [6] = test: Colony formation assay; format: cell-based, human; conditions: 50 and 250 nM
Description: MCF-7 cells (600 cells per well) were seeded in 6-well plates and incubated for 24 h before being then treated with different doses of the compound 12c (50 and 250 nM) for 14 days. Following, the cells were washed with PBS twice and subsequently fixed with 4% paraformaldehyde and stained with 0.05% crystal violet for 30 min. Finally, cells were visualised using an inverted microscope.

[7] = tested on: MCF-7, HL-60, HCT-116 and HeLa; test: MTT cell viability assay, statements over all four cancer cell lines; format: cell-based, human; conditions: Homo sapiens
Description: as §1, §2

[8] = 72 h, read-out: IC50 value, HL-60

Row | Compound | IC50 (HL-60; [8]) [nM] | increase in caspase-9 activation (caspase-9; MCF-7, 50 nM) | percentage of Annexin V-staining positive cells (MCF-7 cells [1]; 50 nM) [%] | levels of ROS in MCF-7 cells (MCF-7 cells [2]; 50 nM) [%] | expression level of the anti-apoptotic protein Bcl-2 [3] | expression of the pro-apoptotic protein Bax [4] | percentage of apoptotic cells with decrease in MMP (MCF-7 cells [5]; 50 nM) [%] | percentage of apoptotic cells with decrease in MMP (MCF-7 cells [5]; 250 nM) [%] | IC50 (HL-60; read-out: IC50, HL-60) [nM] | clonogenic formation potential of MCF-7 cells (MCF-7 cells [6]) | increase in caspase-9 activation (caspase-9; MCF-7, 250 nM) [fold] | percentage of Annexin V-staining positive cells (MCF-7 cells [1]; 250 nM) [%] | percentage of Annexin V-staining positive cells (MCF-7 cells [1]; concentration printed as 0 nM) [%] | percentage of early and late apoptotic cells (MCF-7 cells [1]; concentration printed as 1 µM) [%] | percentage of early and late apoptotic cells (MCF-7 cells [1]; concentration printed as 5 µM) [%] | IC50 [7] [nM] | levels of ROS in MCF-7 cells (MCF-7 cells [2]; 250 nM) [%]
1 | COc1ccc(/C=C\c2cc(OC)c(OC)c(OC)c2)cc1O [CA-4, Combretastatin A-4] | 76 ± 4 | 14 fold | 29 | 18.3 | – | – | – | – | – | – | – | – | – | – | – | – | –
2 | COc1cc(C2=NC(=Cc3cc4ccc(C)cc4nc3OC)C(=O)O2)cc(OC)c1OC [Compound 12c, 4-[(2-Methoxy-7-methylquinolin-3-yl)methylene]-2–(3,4,5-trimethoxyphenyl) oxazol-5(4H)-one] | 19 | about 8 fold | – | 22.7 | decreased | up-regulated | 24.9 | 31.3 | 10 | suppressed the clonogenic formation potential of MCF-7 cells in a dose dependent manner | ~16 | 21 | 15 | 17.6 | 29.3 | 10 to 42 | 26.6
